Literature values as cited in patent publication US8071794B2, “Long wavelength thiol-reactive fluorophores” (Becton, Dickinson and Company, priority 2004, dated 2011).

Details: changing environment from methanol (polar protic) to toluene (non-polar); cited from earlier work

For `CN(C)c1ccc(C2=C(O)C(c3ccc(N(C)C)cc3)=C2O)cc1` [squaraine nucleus III], the “increase in fluorescence quantum yield” value is listed as 20 fold.
